Laboratory results taken from patent US6720423B2, “Dihydrobenzofuran and dihydrobenzothiophene 2,4-pentadienoic acid derivatives having selective activity for retinoid X (RXR) receptors” (Allergan, Inc., priority 2002, dated 2004).

Legend:
RARα = target: T1, RARα (Homo sapiens, UniProt P10276); assay: ligand binding assay, RARα; conditions: second entry of cell, read-out: RAR Bind. Ki (nM) α
T1 sequence (P10276 1-462): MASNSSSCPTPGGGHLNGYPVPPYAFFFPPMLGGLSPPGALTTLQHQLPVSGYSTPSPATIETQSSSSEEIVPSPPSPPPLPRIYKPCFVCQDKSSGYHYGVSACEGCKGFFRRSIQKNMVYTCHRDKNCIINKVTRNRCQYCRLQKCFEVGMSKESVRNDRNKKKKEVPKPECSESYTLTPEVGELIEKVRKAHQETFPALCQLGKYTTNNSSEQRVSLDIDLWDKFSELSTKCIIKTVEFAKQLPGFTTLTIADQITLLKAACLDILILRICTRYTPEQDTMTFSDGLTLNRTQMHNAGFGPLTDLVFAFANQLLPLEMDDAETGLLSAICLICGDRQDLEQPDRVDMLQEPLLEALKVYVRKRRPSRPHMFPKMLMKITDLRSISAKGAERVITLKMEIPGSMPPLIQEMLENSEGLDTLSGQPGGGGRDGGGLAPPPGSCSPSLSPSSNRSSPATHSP
Source text: (§1) A holoreceptor transactivation assay and a ligand binding assay which measure the antagonist/agonist like activity of the compounds of the invention, or their ability to bind to the several retinoid receptor subtypes, respectively, are described in published PCT Application No. WO WO93/11755 (particularly on pages 30-33 and 37-41) published on Jun. 24, 1993, the specification of which is also incorporated herein by reference. A detailed experimental procedure for holoreceptor transactivations has been described by Heyman et al. Cell 68, 397-406, (1992); Allegretto et al. J. Biol. Chem. 268, 26625-26633, and Mangelsdorf et al. The Retinoids: Biology, Chemistry and Medicine, pp 319-349, Raven Press Ltd., New York, which are expressly incorporated herein by reference. The results obtained in this assay are expressed in EC50 numbers, as they are also in the chimeric receptor transactivation assay. The results of ligand binding assay are expressed in Kd numbers. (See Cheng et al. Biochemical Pharmacology Vol. 22 pp 3099-3108, expressly incorporated herein by reference.)

RARγ = target: T2, RARγ (Homo sapiens, UniProt P13631); assay: ligand binding assay, RARγ; conditions: second entry of cell, read-out: RAR Bind. Ki (nM) γ
T2 sequence (P13631 1-454): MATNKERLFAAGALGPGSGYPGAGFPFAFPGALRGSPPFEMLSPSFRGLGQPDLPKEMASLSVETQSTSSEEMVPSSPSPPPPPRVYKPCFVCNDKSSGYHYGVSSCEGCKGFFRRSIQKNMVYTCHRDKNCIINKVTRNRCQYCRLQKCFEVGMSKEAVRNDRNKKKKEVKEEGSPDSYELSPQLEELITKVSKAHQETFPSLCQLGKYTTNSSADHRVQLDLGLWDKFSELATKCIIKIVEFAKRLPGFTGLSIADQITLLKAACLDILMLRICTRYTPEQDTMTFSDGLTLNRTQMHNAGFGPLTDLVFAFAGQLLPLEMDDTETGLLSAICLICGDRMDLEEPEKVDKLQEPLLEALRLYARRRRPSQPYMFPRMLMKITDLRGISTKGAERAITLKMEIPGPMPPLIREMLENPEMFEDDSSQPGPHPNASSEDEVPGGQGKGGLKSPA
Source text: as §1

RXRα = target: T3, RXRα (Homo sapiens, UniProt P19793); assay: ligand binding assay, RXRα; conditions: last entry of cell, read-out: RXR Bind Ki (nM) α
T3 sequence (P19793 1-462): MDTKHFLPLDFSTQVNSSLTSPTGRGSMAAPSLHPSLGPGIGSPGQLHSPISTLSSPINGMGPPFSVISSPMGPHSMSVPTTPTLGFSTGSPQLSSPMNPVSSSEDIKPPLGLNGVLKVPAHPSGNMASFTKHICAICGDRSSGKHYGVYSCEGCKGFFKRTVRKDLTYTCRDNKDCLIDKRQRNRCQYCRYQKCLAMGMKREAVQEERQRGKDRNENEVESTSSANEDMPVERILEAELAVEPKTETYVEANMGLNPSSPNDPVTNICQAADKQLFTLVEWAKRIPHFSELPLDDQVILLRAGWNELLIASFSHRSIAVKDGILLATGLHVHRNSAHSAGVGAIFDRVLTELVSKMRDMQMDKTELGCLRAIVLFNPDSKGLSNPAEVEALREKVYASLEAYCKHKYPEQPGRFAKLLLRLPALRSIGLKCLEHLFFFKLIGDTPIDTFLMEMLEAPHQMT
Source text: as §1

RXRγ = target: T4, RXRγ (UniProt P28705); assay: ligand binding assay, RXRγ; design: other: RXRγ; last entry of cell; conditions: last entry of cell, read-out: RXR Bind Ki (nM) γ
T4 sequence (P28705 1-463): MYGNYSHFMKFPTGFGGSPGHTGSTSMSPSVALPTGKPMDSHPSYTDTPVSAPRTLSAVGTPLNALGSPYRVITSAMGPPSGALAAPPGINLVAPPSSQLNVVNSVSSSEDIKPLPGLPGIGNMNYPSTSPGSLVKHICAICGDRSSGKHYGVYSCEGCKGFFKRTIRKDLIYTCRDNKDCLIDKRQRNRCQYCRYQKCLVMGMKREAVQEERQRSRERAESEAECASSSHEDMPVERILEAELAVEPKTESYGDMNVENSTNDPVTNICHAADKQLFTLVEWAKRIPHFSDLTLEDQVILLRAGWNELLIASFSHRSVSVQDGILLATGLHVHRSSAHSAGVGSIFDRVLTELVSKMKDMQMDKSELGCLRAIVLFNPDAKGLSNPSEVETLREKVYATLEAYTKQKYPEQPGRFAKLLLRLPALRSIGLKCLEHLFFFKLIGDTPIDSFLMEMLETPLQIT
Source text: as §1

Ki (RARα)	Ki (RARγ)	Ki (RXRα)	Ki (RXRγ)	Structure (SMILES)
> 10000 nM	> 10000 nM	114 nM	602 nM	CC(/C=C/[C@@H]1C[C@@H]1c1ccc2c(c1)C(C)(C)CO2)=C\C(=O)O [Compound 36, (E)-3-{(E)-2-F[(1S,2S)-2-(3,3-Dimethyl-2,3-dihydro-benzofuran-5-yl)-cyclopropyl]-vinyl}-but-2-enoic acid]
> 10000 nM	> 10000 nM	306 nM	283 nM	CCCCC(O)CCc1cc([C@@]2(C)C[C@H]2/C=C/C(C)=C/C(=O)O)cc2c1OCC2(C)C (stereo partly drawn) [Compound 38, (E)-3-((E)-2-{(1S,2S)-2-[7-(3-Hydroxy-heptyl)-3,3-dimethyl-2,3-dihydro-benzofuran-5-yl]-2-methyl-cyclopropyl}-vinyl)-but-2-enoic acid]
11000 nM	> 10000 nM	41 nM	70 nM	CCCCC(=O)CCc1cc([C@@]2(C)C[C@H]2/C=C/C(C)=C/C(=O)O)cc2c1OCC2(C)C [Compound 40]
